Measured values as given in US12213960B2, “Method of preventing or improving UV-induced skin damage using hydroangenol as active ingredient” (COSMAXBIO CO., LTD., priority 2017, dated 2025).

Legend:
Format in all cases: cell-based, human
HaCaT keratinocytes = assay: MTT assay of cell viability/proliferation after UV-B damage, epidermal cells
Protocol: (§1) Samples obtained in Examples 1 and 2 were measured in regards to the effect in recovering the skin damaged from UV-B exposure. In this experiment, HaCaT keratinocytes and HS68 fibroblasts were used as epidermal and dermal cells, respectively. In order to evaluate the possible efficacy of each sample in preventing or improving the UV-induced damage of skin cells, the cells were seeded into a 96-well microplate at a density of 1.0×10^4 cells/well and stabilized for 24 hours. Next, the culture medium was exchanged to a new one supplemented with the sample, and the cells were incubated for 24 hours. For UV-B irradiation, the culture medium was removed, washed with PBS, and exposed to UV-B radiation at 15 mJ/cm^2. After an incubation of 24 hours in a culture medium supplemented with the sample, the cells were subjected to an MTT assay to measure cell viability. The MTT assay measures the reduction of a tetrazolium component (MTT) into a formazan product by the mitochondria of viable cells. More specifically, 50 μl of a 5 mg/ml MTT solution was added to the cells, and after an incubation of 4 hours, the culture solution was completely removed and cells were dissolved in DMSO. The absorbance of the DMSO solution in the microplate was quantified by spectrophotometry at 540 nm.

HS68 fibroblasts = assay: MTT assay of cell viability/proliferation after UV-B damage, dermal cells
Protocol: as §1

[1] = test system: MMP-1 secretion in epidermal HaCat keratinocytes; assay: Quantitative analysis of MMP-1 secretion (ELISA), epidermal cells; details: epidermal cells damaged by UV-B radiation of 15 mJ/cm2
Protocol: (§2) Samples obtained in Examples 1 and 2 were measured in regards to the inhibitory effect against the secretion of MMP-1 in epidermal HaCat keratinocytes and dermal Hs68 fibroblasts. In order to evaluate the effect of each sample in reducing MMP-1, the cells were seeded into a 24-well microplate at a density of 1.0×10^5 cells/well and stabilized for 24 hours. Next, the culture medium was exchanged to a new one supplemented with the sample, and the cells were incubated for 24 hours. For UV-B irradiation, the culture medium was removed, washed with PBS, and exposed to UV-B radiation at 15 mJ/cm^2. After an incubation of 48 hours in a culture medium supplemented with the sample, the resultant supernatant was measured in regards to the degree of secretion of MMP-1 by using an MMP-1 Human ELISA kit (ab100603, abcam, US).

[2] = test system: MMP-1 secretion in dermal Hs68 fibroblasts; assay: Quantitative analysis of MMP-1 secretion (ELISA), dermal cells
Protocol: as §2

[3] = test system: procollagen type 1 secretion in dermal Hs68 fibroblasts; assay: Analysis of procollagen type-1 content (PIP EIA)
Protocol: Samples obtained in Examples 1 or 2 were measured in regards to the effect of increasing procollagen type 1 in dermal Hs68 fibroblasts. In order to evaluate the effect of each sample in increasing secretion of procollagen type 1, the cells were seeded into a 24-well microplate at a density of 1.0×10^5 cells/well and stabilized for 24 hours. Next, the culture medium was exchanged to a new one supplemented with the sample, and the cells were incubated for 24 hours. For UV-B irradiation, the culture medium was removed, washed with PBS, and exposed to UV-B radiation at 15 mJ/cm^2. After an incubation of 48 hours in a culture medium supplemented with the sample, the resultant supernatant was measured in regards to the degree of secretion of procollagen type 1 by using a Procollagen type 1 C-peptide (PIP) EIA kit (Mk101, Takara, Japan).

[4] = test system: hyaluronic acid secretion in epidermal HaCaT keratinocytes; assay: Analysis of hyaluronic acid content (ELISA), epidermal cells
Protocol: (§3) Samples obtained in Examples 1 and 2 were measured in regards to the effect of increasing hyaluronic acid in epidermal HaCaT keratinocytes and dermal Hs68 fibroblasts. In order to evaluate the effect of each sample in increasing hyaluronic acid, the cells were seeded into a 24-well microplate at a density of 1.0×10^5 cells/well and stabilized for 24 hours. Next, the culture medium was exchanged to a new one supplemented with the sample, and the cells were incubated for 24 hours. For UV-B irradiation, the culture medium was removed, washed with PBS, and exposed to UV-B radiation at 15 mJ/cm^2. After an incubation of 24 hours in a culture medium supplemented with the sample, the resultant supernatant was measured in regards to the degree of secretion of hyaluronic acid by using a TECOR Hyaluronic Acid PLUS ELISA kit (TE 1018-2, TECO Medical Group, US).

[5] = test system: hyaluronic acid secretion in dermal Hs68 fibroblasts; assay: Analysis of hyaluronic acid content (ELISA), dermal cells
Protocol: as §3

[6] = 1 μM hydrangenol, epidermal cells, UV-B 15 mJ/cm2
[7] = epidermal cells damaged by UV-B radiation of 15 mJ/cm2
[8] = 1 μM hydrangenol, dermal cells, UV-B 15 mJ/cm2
[9] = dermal cells damaged by UV-B radiation of 15 mJ/cm2

## O=C1OC(c2ccc(O)cc2)Cc2cccc(O)c21 (stereo not drawn) [hydrangenol, 8-hydroxy-3-(4-hydroxyphenyl)-3,4-dihydroisochromen-1-one]
HaCaT keratinocytes; [6]
  cell proliferation effect compared with 10 μM EGCG: equivalent to 10 μM EGCG
HaCaT keratinocytes; [7]
  cell proliferation: effective in promoting cell proliferation
  cytotoxicity: non-cytotoxic
HS68 fibroblasts; [8]
  cell proliferation effect compared with 10 μM EGCG: equivalent to 10 μM EGCG
HS68 fibroblasts; [9]
  cell proliferation: effective in promoting cell proliferation
  cytotoxicity: non-cytotoxic
[1]
  production of MMP-1: inhibited the production of MMP-1 in a concentration-dependent manner
[2]; [9]
  production of MMP-1: inhibited the production of MMP-1 in a concentration-dependent manner
[2]; dermal cells, same concentration as EGCG
  inhibitory effect against the production of MMP-1 compared with EGCG: far superior to the EGCG
[3]; [8]
  procollagen production effect compared with 10 μM EGCG: equivalent to 10 μM EGCG
[3]; [9]
  production of procollagen: increased the production of procollagen
[4]; [6]
  effect in producing hyaluronic acid: excellent effect in producing hyaluronic acid
[4]; [7]
  production of hyaluronic acid: increased the production of hyaluronic acid
[5]; [8]
  effect in producing hyaluronic acid: excellent effect in producing hyaluronic acid
[5]; [9]
  production of hyaluronic acid: increased the production of hyaluronic acid
